Assay results from patent US7169816B2, “4-bromo or 4-iodo phenylamino benzhydroxamic acid derivatives and their use as MEK inhibitors” (Warner-Lambert Company, priority 1997, dated 2007).
Where two headings read alike, the source gives them in different places. Blank lines part the entries; values can stand above or below the compound they belong to.

Assays:
[1] = test system: activation of MAP kinase in whole cells; test: Whole cell MAP kinase assay (in vivo, cell culture); type: cell-based
Experimental: To determine if compounds were able to block activation of MAP kinase in whole cells, the following protocol was used: Cells were plated in multi-well plates and grown to confluence. Cells were then serum-deprived overnight. Cells were exposed to the desired concentrations of compound or vehicle (DMSO) for 30 minutes, followed by addition of a growth factor, eg, PDGF (100 ng/mL). After a 5-minute treatment with the growth factor, cells were washed with PBS, then lysed in a buffer consisting of 70 mM NaCl, 10 mM HEPES (pH 7.4), 50 mM glycerol phosphate, and 1% Triton X-100. Lysates were clarified by centrifugation at 13,000×g for 10 minutes. Five micrograms of the resulting supernatants were incubated with 10 μg microtubule associated protein-2 (Map2) for 15 minutes at 30° C. in a final volume of 25 μL containing 50 mM Tris (pH 7.4), 10 mM MgCl2, 2 mM EGTA and 30 μM [γ-^32P]ATP. Reactions were terminated by addition of Laemmli sample buffer. Phosphorylated Map2 was resolved on 7.5% acrylamide gels and incorporated radioactivity determined by autoradiography and subsequent excision of the bands followed by scintillation counting.

p45MEK (GST-MEK) = p45MEK (GST-MEK) (Homo sapiens, UniProt Q02750); test: Cascade assay for inhibitors of the MAP kinase pathway (in vitro); type: biochemical
Experimental: Incorporation of ^32P into myelin basic protein (MBP) was assayed in the presence of a glutathione S-transferase fusion protein containing p44MAP kinase (GST-MAPK) and a glutathione S-transferase fusion protein containing p45MEK (GST-MEK). The assay solution contained 20 mM HEPES, pH 7.4, 10 mM MgCl2, 1 mM MnCl2, 1 mM EGTA, 50 μM [γ-^32P]ATP, 10 μg GST-MEK, 0.5 μg GST-MAPK and 40 μg MBP in a final volume of 100 μL. […] Compounds were assessed at 10 μM for ability to inhibit incorporation of ^32P.
To ascertain whether compounds were inhibiting GST-MEK or GST MAPK, two additional protocols were employed. In the first protocol, compounds were added to tubes containing GST-MEK, followed by addition of GST-MAPK, MBP and [γ-^32P]ATP. In the second protocol, compounds were added to tubes containing both GST-MEK and GST-MAPK, followed by MBP and [γ-^32P]ATP.

[2] = test system: murine colon tumor, C26/clone 10; test: Murine colon tumor C26/clone 10 implanted subcutaneously in mice; type: in vivo, Male CD2F1 mice; details: for Change in Body Weight / Non-Specific Deaths: Days 1 through 14
Experimental: Male CD2F1 mice (NCI: Charles River, Kingston) were implanted subcutaneously with tumor fragments (approximately 30 mg) in the region of the right axilla on Day 0. […] The vehicle for the test compound, and for control animals, was 10% EtOH/10% Cremophor-EL (Sigma)/80% H2O, pH 5.0. Tumor volumes were recorded three times per week by measuring the length and width of the individual tumors and calculating mass in milligrams according to the formula (a×b^2)/2, where a and b are the length and width of the tumor. Percent treated/control (T/C) was calculated based on the ratio of the median tumor volume of the treated tumors compared with the median tumor volume of control animals on specified measurement days.

Compound: 2-(4-bromo-2-methyl-phenylamino)-4-fluoro-N-hydroxy-benzamide [Example 3]
- IC50 ([1]; cell culture): 3000 nM
- IC50 (p45MEK (GST-MEK)): 72 nM

- IC50 [1]: 300 nM
- IC50 (p45MEK (GST-MEK)): 5 nM
Compound: O=C(NOCC1CCC1)c1ccc(F)c(F)c1Nc1ccc(I)cc1Cl [Example 89, 3,4-Difluoro-2-(2-chloro-4-iodo-phenylamino)-N-cyclobutylmethoxy-benzamide]

Compound: O=C(NOCC1CC1)c1ccc(F)c(F)c1Nc1ccc(I)cc1Cl [Example 95, 3,4-Difluoro-2-(2-chloro-4-iodo-phenylamino)-N-cyclopropylmethoxy-benzamide]
- % Inhibition ([2]; IP, 48 mg/kg/day, Day 15): 59%
- Change in Body Weight ([2]; IP, 48 mg/kg/day): +3 grams
- Non-Specific Deaths ([2]; IP, 48 mg/kg/day): 0/6
- % Inhibition ([2]; IP, 77 mg/kg/day, Day 15): 98%
- Change in Body Weight ([2]; IP, 77 mg/kg/day): +2 grams
- Non-Specific Deaths ([2]; IP, 77 mg/kg/day): 2/5
- % Inhibition ([2]; IP, 124 mg/kg/day, Day 15): 96%
- Change in Body Weight ([2]; IP, 124 mg/kg/day): +3 grams
- Non-Specific Deaths ([2]; IP, 124 mg/kg/day): 1/6
- % Inhibition ([2]; IP, 200 mg/kg/day, Day 15): 100%
- Change in Body Weight ([2]; IP, 200 mg/kg/day): +2 grams
- Non-Specific Deaths ([2]; IP, 200 mg/kg/day): 1/6
- % Inhibition ([2]; PO, 71 mg/kg/day, Day 17): 64%
- Change in Body Weight ([2]; PO, 71 mg/kg/day): +2 grams
- Non-Specific Deaths ([2]; PO, 71 mg/kg/day): 0/6
- % Inhibition ([2]; PO, 115 mg/kg/day, Day 17): 79%
- Change in Body Weight ([2]; PO, 115 mg/kg/day): +2 grams
- Non-Specific Deaths ([2]; PO, 115 mg/kg/day): 1/6
- % Inhibition ([2]; PO, 186 mg/kg/day, Day 17): 75%
- Change in Body Weight ([2]; PO, 186 mg/kg/day): +2 grams
- Non-Specific Deaths ([2]; PO, 186 mg/kg/day): 0/6
- % Inhibition ([2]; PO, 300 mg/kg/day, Day 17): 83%
- Change in Body Weight ([2]; PO, 300 mg/kg/day): +2 grams
- Non-Specific Deaths ([2]; PO, 300 mg/kg/day): 0/6

- IC50 [1]: 50 nM
- IC50 (p45MEK (GST-MEK)): 10 nM
Compound: O=C(NO)c1cc(Br)c(F)c(F)c1Nc1ccc(I)cc1Cl [Example 93, 5-Bromo-2-(2-chloro-4-iodo-phenylamino)-3,4-difluoro-N-hydroxy-benzamide]

- IC50 [1]: 200 nM
- IC50 (p45MEK (GST-MEK)): 4 nM
Compound: Cc1cc(I)ccc1Nc1c(C(=O)NOCC2CCC2)cc(Br)c(F)c1F [Example 102, 5-Bromo-N-cyclobutylmethoxy-3,4-difluoro-2-(4-iodo-2-methyl-phenylamino)-benzamide]

Compound: 4-Fluoro-N-hydroxy-2-(4-cluoro-2-methyl-phenylamino)-benzamide [Example 11]
- IC50 ([1]; cell culture): 500 nM
- IC50 (p45MEK (GST-MEK)): 334 nM

Compound: Cc1cc(I)ccc1Nc1c(C(=O)NOCC(C)C)cc(Br)c(F)c1F [Example 99, 5-Bromo-3,4-difluoro-2-(4-iodo-2-methyl-phenylamino)-N-isobutoxy-benzamide]
- IC50 [1]: 500 nM
- IC50 (p45MEK (GST-MEK)): 18 nM

- melting point: 61 to 75 °C
- IC50 (p45MEK (GST-MEK)): 7 nM
Compound: Cc1cc(I)ccc1Nc1cc(F)ccc1C(=O)NO [Example 1, 4-Fluoro-N-hydroxy-2-(4-iodo-2-methyl-phenylamino)-benzamide]

- IC50 [1]: 40 nM
- IC50 (p45MEK (GST-MEK)): 3 nM
Compound: O=C(NO)c1ccc([N+](=O)[O-])cc1Nc1ccc(I)cc1Cl [Example 82, 2-(2-Chloro-4-iodo-phenylamino)-N-hydroxy-4-nitro-benzamide]

- melting point: 80 to 90 °C
- IC50 (p45MEK (GST-MEK)): 3 nM
Compound: Cc1cc(I)ccc1Nc1c(C(=O)NO)cc(Br)c(F)c1F [Example 2, 5-Bromo-3,4-difluoro-N-hydroxy-2-(4-iodo-2-methyl-phenylamino)-benzamide]

- IC50 [1]: > 1000 nM
- IC50 (p45MEK (GST-MEK)): 26 nM
Compound: Cc1cc(I)ccc1Nc1c(C(=O)NOCC2CCCCC2)cc(Br)c(F)c1F [Example 100, 5-Bromo-N-cyclohexylmethoxy-3,4-difluoro-2-(4-iodo-2-methyl-phenylamino)-benzamide]

- IC50 ([1]; cell culture): 14 nM
- IC50 (p45MEK (GST-MEK)): 18 nM
Compound: 5-Bromo-N-cyclopropylmethoxy-3,4-difluoro-2-(4-iodo-2-methyl-phenylamino) [Example 58]

- IC50 [1]: > 1000 nM
- IC50 (p45MEK (GST-MEK)): 8 nM
Compound: Cc1cc(I)ccc1Nc1c(C(=O)NOCC2CCCC2)cc(Br)c(F)c1F [Example 101, 5-Bromo-N-cyclopentylmethoxy-3,4-difluoro-2-(4-iodo-2-methyl-phenylamino)-benzamide]

- IC50 [1]: 5 nM
- IC50 (p45MEK (GST-MEK)): 1 nM
Compound: Cc1cc(I)ccc1Nc1c(C(=O)NO)ccc(F)c1F [Example 84, 3,4-Difluoro-N-hydroxy-2-(4-iodo-2-methyl-phenylamino)-benzamide]
